# Assays:
# [1] = tested on: intact lenses dissected from wild-type mouse eyeglobes; experiment: Ex vivo lens toxicity test, isolated lenses incubated 2 days; conditions: 8 mM, 37 C, positive control for lens toxicity
# Description: (§1) FIG. 3. Ex vivo lens toxicity test of TAPP1. The eyeglobes of mice (aged 42 days) were cultured overnight either with control solution (media containing 45% β-cyclodextrin) or TAPP1 (TAPP1 in media containing 45% β-cyclodextrin), at 37° C. overnight, and in 95% air/5% CO2. […] To determine the effects of TAPP1 on isolated lenses, intact lenses were dissected from wild-type mouse eyeglobes, and incubated in DMEM media in a 96 well tissue culture plate. Groups of 3-6 lenses were incubated in 200 μl of media alone (negative control), 4% (2-hydroxypropyl)-β-cyclodextrin (carrier control), 8 mM hydrogen peroxide (H2O2, positive control for lens toxicity), 4 mM TAPP1-O (free radical form), 4 mM TAPP1-R (reduced form), and 4 mM of the two products of TAPP1-R hydrolysis (HP-1 and HP-2), respectively. β-cyclodextrin was included as a carrier control because all of the stock solutions contained 45% (2-hydroxypropyl)-β-cyclodextrin. The samples were incubated in 5% CO2 incubator at 37 C for 2 days.
# (§2) The TAPP compositions are intended for topical delivery to the anterior portion of the eye. […] Morphological or anatomical effects are determined by comparison of TAPP-treated samples to samples incubated with either the TAPP vehicle or samples which are exposed (10 min treatment) to 100% ethanol (a positive control for lens toxicity). […]
# [2] = Pharmacokinetics and ocular tissue distribution of total radioactivity after single topical dose in mice; type: in vivo, ABCA4+/−/SOD+/− mice
# Description: (§3) FIG. 13. Pharmacokinetics and ocular tissue distribution of total radioactivity following single topical dose administration of [^14C]Compound 14 in mice. Seven ABCA4+/−/SOD+/− mice were used for this study. The mice were anesthetized and drug was administered as described above. At each specified time post dosing (0 min, 15 min, 30 min, 1 hr, 2 hr, 4 hr and 6 hr), one mouse was sacrificed by cervical dislocation and both eyeballs were enucleated. Each eyeball was rinsed in 1 ml fresh PBS to wash off unabsorbed drug. The right eye was analyzed intact. From the left eye, the following tissues were harvested: lens, anterior segment, retina and posterior segment. Total radioactivity of all tissues was determined using a liquid scintillation analyzer. […] Peak drug concentration in all tissues occurred at ˜1 hr.
# as §3, with “Seven” for “FIG. 13. Pharmacokinetics and ocular tissue distribution of total radioactivity following single topical dose administration of [^14C]Compound 14 in mice. Seven”, “and an ophthalmic formulation of Compound 14, prepared as described above,” for “and drug”, “administered topically to the eye.” for “administered as described above.”
# [3] = Pharmacokinetics and ocular tissue distribution of total radioactivity after single topical dose in rabbit; type: in vivo, New Zealand White rabbits
# Description: (§4) FIG. 14. Pharmacokinetics and ocular tissue distribution of total radioactivity following single topical dose administration of [^14C]Compound 14 in rabbit. Four New Zealand White rabbits, age 3-4 months, weight 2.7 to 3.2 kg were used for this study. The rabbits were anesthetized and drug was administered as described above. At each specified time post dosing (0.5, 1, 2, and 4 hr), blood was collected from the ear vein of one rabbit and recovered serum volume was recorded. Rabbits were sacrificed by asphyxiation and both eyeballs were enucleated. Each eyeball was rinsed in 10 ml fresh PBS to wash off unabsorbed drug. The following tissues were harvested from each eye: anterior segment, lens, vitreous body, retina and posterior segment (without retina). Total radioactivity of each tissue and in serum was determined using a liquid scintillation analyzer (Packard Tri-Carb 2100TR). CPM was converted to DPM, and quantity of the drug (pmole) absorbed in each tissue was calculated based on specific activity (average DPM in tissues from left and right eyes). The serum level of the drug was determined as concentration (pmole/ml). [^14C]Compound 14 was rapidly taken into ocular tissues (within ˜15 min) and peak drug concentration in all tissues occurred at ˜0.5 hr.
# as §4, with “Four” for “FIG. 14. Pharmacokinetics and ocular tissue distribution of total radioactivity following single topical dose administration of [^14C]Compound 14 in rabbit. Four”, “and an ophthalmic formulation of Compound 14” for “and drug”, “administered topically to the eye.” for “administered as described above.”
# [4] = tested on: oxidation of ABTS to ABTS^•+ radical cation by metmyoglobin; experiment: In vitro anti-oxidant assay: inhibition of metmyoglobin-mediated oxidation of ABTS to ABTS•+ (absorbance at 750 nm); type: biochemical
# [5] = tested on: eyeglobes of mice; experiment: Ex vivo lens toxicity test, whole eyeglobes cultured overnight; conditions: brief treatment (10 min) with 100% ethanol, positive control
# Description: as §1, §2
smiles,measurement,setting,value
"OO [Compound H2O2, hydrogen peroxide]",cataract in isolated lenses,[1],caused obvious cataract
CC1(C)CC(OCCCCCC(O)/C=C/C(=O)O)CC(C)(C)N1O (stereo not shown) [[^14C]Compound 14],ocular tissues with lower concentrations,[2],lens and retina
same,ocular tissues with the highest concentrations,[2],anterior and posterior segments
same,time of peak drug concentration in all tissues,[2],~1 h
same,time until uptake into ocular tissues,[2],≤ 15 min
same,amount in vitreous body,[3],intermediate amount
same,ocular tissues with the highest recovery,[3],anterior and posterior segments
same,"recovery in retina and lens, lower than in anterior and posterior segments",[3],approximately 10 fold
same,time of peak drug concentration in all tissues,[3],~0.5 h
same,time until uptake into ocular tissues,[3],≤ 15 min
same,dose-response of anti-oxidation activity,"[4]; 0, 5, 10, 20, 50, 100, 200 and 500 μM",dose-dependent anti-oxidation activity
same,IC50,"[4]; 0-500 μM compound, 15 μM ABTS, 2.5 μM metmyoglobin, 80 μM hydrogen peroxide, room temperature",~10 µM
"CCO [ethanol, reference compound]",cataract formation in eyeglobes,[5],caused cataract formation

# Reference: US20090253745A1, “MODULATORS OF OCULAR OXIDATIVE STRESS” (SIRION THERAPEUTICS, INC., priority 2007, published 2009)
